# Results taken from paper PMC3984054 (Bioorganic & medicinal chemistry, 2013).
# Where two headings read alike, the source gives them in different places. Marks after values point to notes of the source that are not given here.
# Key:
# [1] = test system: PrP^Sc in dividing ScN2a-cl3 cells; assay: cells; type: cell-based, mouse; details: for EC50: Mus musculus
# [2] = in vitro; details: mouse
# [3] = test system: dividing ScN2a-cl3 cells
# [4] = test system: PrP^Sc in stationary-phase ScN2a-cl3 cells; type: cell-based, mouse
# [5] = in vivo; details: female, FVB, mouse, po, 10 mg/kg, Cmax ± SD
# [6] = test system: PrP^Sc in dividing cells; details: cited from earlier work
# [7] = test system: PrP^Sc in stationary-phase cells; details: cited from earlier work
# [8] = read-out: EC50 in dividing cells (text and footnote)
compound,measurement,setting,value
"CN1CCc2cccc3c2[C@H]1Cc1ccc(O)c(O)c1-3 [Apomorphine, reference compound]",EC50,[1]; read-out: EC50 ± SEM (antiprion activity by ELISA),> 10000 nM
COc1ccccc1OCCNCC(O)COc1cccc2[nH]c3ccccc3c12 (stereo not shown) [Carvedilol],CC50,[2],5000 to 6100 nM
"Nc1c(/N=N/c2ccc(-c3ccc(/N=N/c4cc(S(=O)(=O)[O-])c5ccccc5c4N)cc3)cc2)cc(S(=O)(=O)[O-])c2ccccc12.[Na+].[Na+] [Congo Red, reference compound]",antiprion potency in dividing cells,[1],good potency
same,EC50,[1]; [8],~400 nM
same,effect on cell viability,[3],no effects on cell viability
CCOc1ccc(/N=N/c2ccc(N)cc2N)cc1 [Ethoxazine],CC50,[3],> 10000 nM
CC(NCCC(c1ccccc1)c1ccccc1)c1ccccc1 (stereo not shown) [Fendiline],EC50,[2],4300 to 9600 nM
Cc1ccc2[nH]c3c(c2c1)CCCC3NCCCN(C)C (stereo not shown) [IND23308],Reduction (%) Stationary PrP^Sc,[4],94 ^c %
same,percent reduction in PrP^Sc in the HTS,[4],70%
same,effect on cell viability,[3],no effect on cell viability
c1cncc(-c2nc(-c3c[nH]c4ccccc34)cs2)c1 [IND24350],EC50,[1]; [8],< 1000 nM
CC(=O)c1ccc(NC(=O)c2sc3nc4c(cc3c2N)CCCC4)cc1 [IND24609],antiprion potency in dividing cells,[1],inactive
COc1ccc(-c2cc(-c3ccc(OC)cc3O)[nH]n2)cc1 [IND25807],EC50,[1]; [8],< 1000 nM
Cn1c(=N)n(CC(=O)c2ccc(Cl)cc2)c2ccccc21 [IND26326],EC50,[1]; [8],> 1000 nM
CCOc1ccc(NC(=O)c2cc3ccccc3cc2O)cc1 [IND31751],EC50,[1]; [8],< 1000 nM
COc1ccc(C(=O)Nc2ccc(-c3csc(C)n3)cc2)cc1 [IND33145],EC50,[1]; [8],< 1000 nM
OCCNCc1cc(Br)ccc1OCc1ccc(Cl)cc1Cl [IND34452],EC50,[1]; [8],> 1000 nM
CN(C)CCNc1nc(-c2ccc(Cl)cc2)nc2ccccc12 [IND34921],EC50,[1]; [8],> 1000 nM
COc1cccc(Nc2nc(N)c3ccccc3n2)c1 [IND35916],EC50,[1]; [8],> 1000 nM
COc1ccc(CCNC(=O)c2sc3nc(-c4cccs4)ccc3c2N)cc1OC [IND42103],antiprion potency in dividing cells,[1],inactive
COc1cc(N)c(-c2ccc3cc(OC)c(OC)cc3n2)cc1OC [IND44355],EC50,[1]; [8],> 1000 nM
Cn1c(=N)n(CC(=O)c2ccc(Br)cc2)c2ccccc21 [IND44723],EC50,[1]; [8],> 1000 nM
CN1CCN(c2ccc(Nc3ccnc4cc(Cl)ccc34)cc2)CC1 [IND45193],EC50,[1]; [8],> 1000 nM
same,Cmax,[5]; brain,1610 ± 230 nM
same,Cmax,[5]; plasma,130 ± 10 nM
COc1cc(CNCCO)cc(Br)c1OCc1ccccc1Cl [IND46380],EC50,[1]; [8],> 1000 nM
COc1ccc2cc3c(N)c(C(=O)Nc4ccc(C(C)=O)cc4)sc3nc2c1 [IND52025],EC50,[1]; [8],< 1000 nM
N#Cc1sc2nc(-c3ccc4c(c3)OCO4)ccc2c1N [IND52851],Cmax,[5]; brain,1020 ± 710 nM
same,Cmax,[5]; plasma,410 ± 250 nM
COc1ccc(-c2nc3cc(NC(=O)c4ccc(OCc5ccccc5)cc4)ccc3o2)cc1 [IND114202],EC50,[1]; [8],< 1000 nM
COc1ccc2cc1Oc1ccc(cc1)C[C@H]1c3cc(c(OC)cc3CCN1C)Oc1c(OC)c(OC)cc3c1[C@H](C2)N(C)CC3 [Tetrandine],CC50,[3],5000 to 6100 nM
CCN(CC)CCCC(C)Nc1c2ccc(Cl)cc2nc2ccc(OC)cc12 (stereo not shown) [quinacrine],activity in dividing cells,[6],rapidly cleared
same,activity in stationary-phase cells,[7],relatively ineffective
Dextran [reference compound],EC50 ± SEM (antiprion activity by ELISA),[1],0.40 ± 0.08 (mg/L)
same,antiprion potency in dividing cells,[1],good potency
Enoxaparin [reference compound],EC50 ± SEM (antiprion activity by ELISA),[1],>10 (mg/L)
same,LC50 ± SEM (cell viability by calcein),[3],>10 (mg/L)
